The values below come from patent US6383479B1, “Neutrophil-activating factor” (Novartis AG, priority 1987, dated 2002).

Common to all, as to format: cell-based
Assay [1] relates to human neutrophils. Kind of assay: elastase release from human neutrophils pretreated with cytochalasin B (NAF activity). Conditions: phosphocellulose fractions. The text has this: Human monocytes are isolated from buffy coats of donor blood (Swiss Red Cross Laboratory, Bern, Switzerland) by centrifugation through a Ficoll-Paque gradient. This method separates neutrophils from the so-called mononuclear cells, a mixture of monocytes (about 20%) and lymphocytes (about 80%). Three monocyte preparations are used: (i) the total mononuclear cell fraction, (ii) monocytes enriched from the mononuclear cell fraction by adherence, and (iii) 90% pure monocytes separated from the lymphocytes by centrifugal elutriation (G. Garotta et al., Biochem. Biophys. Res. Comm. 140 [1986] 948-954 and K. J. Clemetson et al., J. Exp. Med. 161 [1985] 972-983). The cells are cultured in MEM-PPL and stimulated with increasing concentrations (0.1 ng to 1 μg/ml) of LPS. At different times, aliquots of the culture media are sampled and NAF activity is determined as the capacity to induce the release of elastase from human neutrophils pretreated with cytochalasin B (B. Dewald et al., Biochem. Pharmacol. 36 [1987] 2505-2510).
Mononuclear cells obtained from donor blood buffy coats as described in Example 1 are cultured in MEM-PPL for 48 h in the presence of 100 ng/ml LPS in stirred culture bottles (1.5 liter, 5×10^6 cells/ml). […] Absorbance at 280 nm is monitored continuously as a measure of protein. […]

Assay [2] has as its system human neutrophils. Kind of assay: stimulus-dependent exocytosis of granule contents by human neutrophils. As for the experimental part: Neutrophils (5×10^6/ml) suspended in PBS/BSA are preincubated with or without cytochalasin B (5 μg/ml) at 37° for 5 min.
Granule release is then initiated by adding the stimulus, e.g. NAF or a standard stimulus. The reaction is stopped 15 min later by rapid cooling in ice followed by centrifugation to sediment the cells. Vitamin B12-binding protein, β-glucuronidase and lactate dehydrogenase are determined in the cell-free media and cell pellets, and the release of these constituents is calculated in percent of the total cellular content (B. Dewalt and M. Baggiolini, Methods Enzymol. 132 [1986] 267).
(§1) Natural and recombinant NAF are tested in parallel on human neutrophils. They elicit virtually identical changes in cytosolic free Ca^2+, yielding a maximum rise at a concentration as low as 3 nM (FIG. 15). A nearly identical concentration-dependent respiratory burst response is obtained with both preparations in the range of 1 to 30 nM as assessed by chemiluminescence. The equivalence between natural and recombinant NAF is also reflected by chemotaxis and exocytosis measurements. Chemotactic migration is observed between 0.1 and 10 nM with a maximum effect at 1 nM. (Table 6). With either peptide a significant release of vitamin B12-binding protein from the specific granules at 0.3 nM and of beta-glucuronidase from the azurophil granules at 1 nM is observed.

Assay [3] concerns human neutrophils. The assay is described as follows: cytosolic free Ca2+ changes in quin-2 loaded human neutrophils. The settings on record: as low as. The procedure: Upper graphs: cytosolic free Ca^2+ changes induced by natural (left) and recombinant (right) NAF. Neutrophils (4×10^6 cells/ml) are loaded with 0.1 nmol quin-2/AM and then stimulated with 3 nM NAF (mark). Quin-2 saturation changes calibrated as described in V. Von Tscharner et al., J. Biol. Chem. 261 (1986) 10163-10168.
as §1

The test system of assay [4] is human neutrophils. The assay is described as follows: NAF-induced neutrophil chemotaxis (leading front migration). Conditions: for leading front migration: random migration 61 ± 5 μm. The procedure: as §1

Regarding interleukin-1 [IL-1], the elastase-releasing activity entry in assay [1] is “no elastase-releasing activity”.

Turning to “natural NAF: NAF purified from culture fluid of LPS-stimulated human monocytes”, the “concentration giving significant release of beta-glucuronidase from the azurophil granules” value in assay [2] stood at 1 nM. In assay [2], the “concentration giving significant release of vitamin B12-binding protein from the specific granules” value is 0.3 nM. Also, the “concentration yielding a maximum rise in cytosolic free Ca2+” value in assay [3] turned out to be 3 nM. In assay [4], the “concentration of maximum chemotactic effect” value was found to be 1 nM. In addition, the leading front migration in assay [4] (NAF 0.1 nM) came out at 98 ± 6 μm; in assay [4] (NAF 1.0 nM) it was 123 ± 6 μm; in assay [4] (NAF 10.0 nM), 127 ± 3 μm.

Consider “recombinant NAF: 72-amino-acid NAF obtained by recombinant DNA processes, expressed in E. coli”, for which the “concentration giving significant release of beta-glucuronidase from the azurophil granules” value in assay [2] is 1 nM. Besides, in assay [2], the “concentration giving significant release of vitamin B12-binding protein from the specific granules” value worked out at 0.3 nM. For the same substance, the “concentration yielding a maximum rise in cytosolic free Ca2+” value in assay [3] is given as 3 nM. Further, in assay [4], the “concentration of maximum chemotactic effect” value is listed as 1 nM. Moreover, the leading front migration in assay [4] (NAF 0.1 nM) is given as 88 ± 6 μm; in assay [4] (NAF 1.0 nM) it was 124 ± 3 μm; in assay [4] (NAF 10.0 nM), 126 ± 4 μm.
